# Measured values: patent publication US10857180B2, “Pharmaceutical composition for improving health, cure abnormalities and degenerative disease, achieve anti-aging effect of therapy and therapeutic effect on mammals and method thereof” (priority 2014, dated 2020)
# Values joined by “and” are separate entries in the source; they are usually repeats but may differ in a detail not shown here. Identical values can stand only once. Marks after values point to notes of the source that are not given here.
# Assays:
# mouse L1210 leukemia = experiment: Mouse L1210 leukemia model; assay type: in vivo
# Procedure: The efficacy of the ^64Zne aspartate composition with respect to growth and metastatic activity of the experimental tumor (strain of mouse L1210 leukemia) was assessed in the experiment. […] To inoculate the strain, tumor cells derived from ascitic fluid were placed in normal saline solution, the cellularity of suspension was determined using a hemocytometer and adjusted to a concentration of 1×10^6 cells/ml with saline solution. The tumor was transplanted by injecting 250 μl of the tumor cell suspension (0.25×10^6 cells/mouse) into abdominal cavities of the animals. 80 male BDFi mice at the age of 8-10 weeks, weighing 18-22 g were used in the experiment.
# In the experiment, 0.25×10^6 cells of mouse L1210 leukemia in 0.3 ml of saline solution were injected in the peritoneal cavities of the BDFi mice. The agent according to the invention was dissolved in deuterium-depleted water (deuterium-depleted water Langvey) and given to the experimental animals from the first day after the inoculation of the tumor cells. The solution composition comprising ^64Zne aspartate and deuterium-depleted water was injected intraperitoneally using a microinjection syringe at doses of 25 μg/mouse, 50 μg/mouse and 75 pig/mouse every other day (7 times during 14 days) in a volume of 0.5 ml/mouse. The said agent was also injected intravenously at a dose of 25 μg/mouse every other day (7 times during 14 days) in a volume of 0.2 ml/mouse. […] At day 8, 13 and 18 after inoculation of tumor cells, the whole ascites fluid was recovered from the animals and the total number of live/dead cells in each mouse was determined. Some mice were also used to evaluate their average life span in the experiment.
# Clinical observations were carried out as described in Example 7. The animals were divided into groups as follows (16 mice per group): • 1. Group No 1: control group, L1210+solvent (deuterium-depleted water); • 2. Group No 2: L1210+^64Zne aspartate administered i.v. at a dose of 25 μg/mouse; • 3. Group No 3: L1210+^64Zne aspartate administered i.p. at a dose of 25 μg/mouse; • 4. Group No 4: L1210+^64Zne aspartate administered i.p. at a dose of 50 μg/mouse; • 5. Group No 5: L1210+^64Zne aspartate administered i.p. at a dose of 75 μg/mouse.
# ^64Zne aspartate was diluted in deuterium-depleted water and injected, starting from the first day of the tumor transplantation, 7 times every other day during 14 days in a volume of 0.5 ml/mouse using an i.p. route of administration and in a volume of 0.2 ml/mouse using an i.v. route of administration. The animals of the control group received intraperitoneal injections with 0.5 ml/mouse of deuterium-depleted water.
# The dynamics of formation of ascites in the control and experimental groups was assessed visually using a 10-point scale (one point was 0.5 cm of the mean diameter of the mouse abdomen filled with ascites).
# In addition, at 8, 13 and 18 days after the mice were inoculated with the tumor cells, all ascitic fluid was removed from the abdomens in all animals from each group by washing their peritoneal cavities with saline solution and live and dead tumor cells were counted using the traditional vital dye trypan blue (HyClon, USA) and a hemocytometer.
# The number of cells was determined using the following formula: X=((a)/80)×10^6, where X is the number of cells in 1 ml and a is the number of cells counted in 80 small squares of the hemocytometer.
# 50% of the mice in each group were used to assess their average length of survival in the experiment. The percentage change in the lifespan of the experimental animals was calculated using the following formula: (c−d)/[…]×100, where: c is the average lifespan in the experimental group and d is the average lifespan in the control group. The total time of observation of the lifespan of the experimental animals was 60 days after the tumor inoculation.
# [1] = system: human melanoma tumor cells (MM-4 cell line); experiment: Scratch assay, MM-4 cells; assay type: cell-based; details: ^64Zn 15 mcg/ml; 48 hours in control
# Procedure: The cells of A-549, A-431, NRK, HaCaT, MM-4, normal fibroblasts (derived from the Bank of Cell Lines from human and animal tissues, R. E. Kavetsky Institute of Experimental Pathology, Oncology and Radiobiology, National Academy of Sciences of Ukraine) were cultured in complete culture medium RPMI 1640/DMEM (PAA, Austria) (depending on the cell type) supplemented with 10% fetal calf serum (PAA, Austria) and incubated in 5% CO2 humidified atmosphere at 37° C. The culture medium was replaced in 2 to 3 days and the cells were passaged in 4 to 5 days.
# Analysis of the influence of the components under study on the cell migration rate was performed using the scratch assay method. […]
# The plate was incubated in a CO2 incubator for additional 48 hours. After the cells formed a dense monolayer it was damaged (by making a “scratch”) and the growth medium was replaced to remove cell debris and smooth the edges of the “scratch.” The rate of cell migration was analyzed using an inverted microscope and by photographing cells in the area of injury. The migration activity of cells was fixed at several time points (depending on the cell line analyzed). The microphotomicrographs were analyzed and the cell incubation time needed to restore the monolayer was determined for all experimental groups. […]
compound,measurement,setting,value
"NC(CC(=O)[O-])C(=O)[O-].[64Zn+2] (racemic) [^64Zne aspartate, ^64Zn aspartate (racemic)]",decrease in the number of live cells in the peritoneal cavities,"mouse L1210 leukemia; 50 μg/mouse or 75 μg/mouse, after 3 injections",100%
same,Number of live cells/mouse (M ± m),"mouse L1210 leukemia; day 8, i.p. 25 μg/mouse",335.8 × 10^6
same,Percentage of dead tumor cells in ascites fluid,"mouse L1210 leukemia; day 8, i.p. 25 μg/mouse",below 2%
same,Volume of ascites (M ± m),"mouse L1210 leukemia; day 8, i.p. 25 μg/mouse",0.8 ± 0.8 ml/mouse
same,number of cells in the ascites of the one mouse with tumor cells,"mouse L1210 leukemia; day 8, i.p. 25 μg/mouse, 1 of 2 mice",indicators (671. 6 × 10^6). No
same,Number of live cells/mouse (M ± m),"mouse L1210 leukemia; day 8, i.p. 50 μg/mouse",0**
same,Percentage of dead tumor cells in ascites fluid,"mouse L1210 leukemia; day 8, i.p. 50 μg/mouse",0%
same,Volume of ascites (M ± m),"mouse L1210 leukemia; day 8, i.p. 50 μg/mouse",0* ml/mouse
same,Number of live cells/mouse (M ± m),"mouse L1210 leukemia; day 8, i.p. 75 μg/mouse",0**
same,Percentage of dead tumor cells in ascites fluid,"mouse L1210 leukemia; day 8, i.p. 75 μg/mouse",0%
same,Volume of ascites (M ± m),"mouse L1210 leukemia; day 8, i.p. 75 μg/mouse",0* ml/mouse
same,Number of live cells/mouse (M ± m),"mouse L1210 leukemia; day 8, i.v. 25 μg/mouse",902 × 10^6
same,Percentage of dead tumor cells in ascites fluid,"mouse L1210 leukemia; day 8, i.v. 25 μg/mouse",below 2%
same,Volume of ascites (M ± m),"mouse L1210 leukemia; day 8, i.v. 25 μg/mouse",1.2 ± 0.3 ml/mouse
same,Number of live cells/mouse (M ± m),"mouse L1210 leukemia; day 13, i.p. 25 μg/mouse",532.7 × 10^6
same,Percentage of dead tumor cells in ascites fluid,"mouse L1210 leukemia; day 13, i.p. 25 μg/mouse",below 3%
same,Volume of ascites (M ± m),"mouse L1210 leukemia; day 13, i.p. 25 μg/mouse",1.9 ± 1.5 ml/mouse
same,Number of live cells/mouse (M ± m),"mouse L1210 leukemia; day 13, i.p. 50 μg/mouse",0**
same,Percentage of dead tumor cells in ascites fluid,"mouse L1210 leukemia; day 13, i.p. 50 μg/mouse",0%
same,Volume of ascites (M ± m),"mouse L1210 leukemia; day 13, i.p. 50 μg/mouse",0* ml/mouse
same,Number of live cells/mouse (M ± m),"mouse L1210 leukemia; day 13, i.p. 75 μg/mouse",0**
same,Percentage of dead tumor cells in ascites fluid,"mouse L1210 leukemia; day 13, i.p. 75 μg/mouse",0%
same,Volume of ascites (M ± m),"mouse L1210 leukemia; day 13, i.p. 75 μg/mouse",0* ml/mouse
same,Number of live cells/mouse (M ± m),"mouse L1210 leukemia; day 13, i.v. 25 μg/mouse",1322 × 10^6
same,Percentage of dead tumor cells in ascites fluid,"mouse L1210 leukemia; day 13, i.v. 25 μg/mouse",below 3%
same,Volume of ascites (M ± m),"mouse L1210 leukemia; day 13, i.v. 25 μg/mouse",6 ± 1.5 ml/mouse
same,amount of ascites less than control,"mouse L1210 leukemia; day 15, 50 μg",87%
same,amount of ascites less than control,"mouse L1210 leukemia; day 15, 75 μg",90%
same,amount of ascites less than control,"mouse L1210 leukemia; day 15, i.p. 25 μg/mouse",60%
same,Average lifespan of animals (M ± m),mouse L1210 leukemia; i.p. 25 μg/mouse,28.1 ± 4.7 days
same,Increase in the lifespan of experimental animals,mouse L1210 leukemia; i.p. 25 μg/mouse,41.3%
same,Number of animals in the group with tumor,mouse L1210 leukemia; i.p. 25 μg/mouse,11 pc
same,Number of animals in the group without tumor,mouse L1210 leukemia; i.p. 25 μg/mouse,5 pc
same,Tumor-free animals,mouse L1210 leukemia; i.p. 25 μg/mouse x7,31.2%
same,Volume of ascites in mice,"mouse L1210 leukemia; i.p. 25 μg/mouse x7, day 8",0.6 ± 0.3 points
same,Volume of ascites in mice,"mouse L1210 leukemia; i.p. 25 μg/mouse, day 10",1.1 ± 0.5 points
same,Volume of ascites in mice,"mouse L1210 leukemia; i.p. 25 μg/mouse, day 13",2.5± 0.6 points
same,Volume of ascites in mice,"mouse L1210 leukemia; i.p. 25 μg/mouse, day 15",4.1 points and 4.1 ± 1.1 points
same,Volume of ascites in mice,"mouse L1210 leukemia; i.p. 25 μg/mouse, day 18",4.8 ± 1.4 points
same,Volume of ascites in mice,"mouse L1210 leukemia; i.p. 25 μg/mouse, day 20",4.6 ± 1.8 points
same,Volume of ascites in mice,"mouse L1210 leukemia; i.p. 25 μg/mouse, day 22",3.5 ± 2.2 points
same,Volume of ascites in mice,"mouse L1210 leukemia; i.p. 25 μg/mouse, day 26",2.5 ± 2.5 points
same,Volume of ascites in mice,"mouse L1210 leukemia; i.p. 25 μg/mouse, day 28",0 points
same,Average lifespan of animals (M ± m),mouse L1210 leukemia; i.p. 50 μg/mouse,41.6 ± 8.7 days
same,Increase in the lifespan of experimental animals,mouse L1210 leukemia; i.p. 50 μg/mouse,60.3%
same,Number of animals in the group with tumor,mouse L1210 leukemia; i.p. 50 μg/mouse,5 pc
same,Number of animals in the group without tumor,mouse L1210 leukemia; i.p. 50 μg/mouse,11 pc
same,Tumor-free animals,mouse L1210 leukemia; i.p. 50 μg/mouse x7,68.8%
same,Volume of ascites in mice,"mouse L1210 leukemia; i.p. 50 μg/mouse x7, day 8",0* points
same,Volume of ascites in mice,"mouse L1210 leukemia; i.p. 50 μg/mouse, day 10",0* points
same,Volume of ascites in mice,"mouse L1210 leukemia; i.p. 50 μg/mouse, day 13",0.4 ± 0.2 points
same,Volume of ascites in mice,"mouse L1210 leukemia; i.p. 50 μg/mouse, day 15",1.3 ± 0.7 points
same,Volume of ascites in mice,"mouse L1210 leukemia; i.p. 50 μg/mouse, day 15, listed as 64Zn aspartate",1.3 points
same,Volume of ascites in mice,"mouse L1210 leukemia; i.p. 50 μg/mouse, day 18",1.1 ± 1.1 points
same,Volume of ascites in mice,"mouse L1210 leukemia; i.p. 50 μg/mouse, day 20",0 points
same,Volume of ascites in mice,"mouse L1210 leukemia; i.p. 50 μg/mouse, day 22",0 points
same,Volume of ascites in mice,"mouse L1210 leukemia; i.p. 50 μg/mouse, day 26",0 points
same,Volume of ascites in mice,"mouse L1210 leukemia; i.p. 50 μg/mouse, day 28",0 points
same,Average lifespan of animals (M ± m),mouse L1210 leukemia; i.p. 75 μg/mouse,55 ± 5 days
same,Increase in the lifespan of experimental animals,mouse L1210 leukemia; i.p. 75 μg/mouse,70%
same,Number of animals in the group with tumor,mouse L1210 leukemia; i.p. 75 μg/mouse,1 pc
same,Number of animals in the group without tumor,mouse L1210 leukemia; i.p. 75 μg/mouse,15 pc
same,Tumor-free animals,mouse L1210 leukemia; i.p. 75 μg/mouse x7,93.8%
same,Volume of ascites in mice,"mouse L1210 leukemia; i.p. 75 μg/mouse x7, day 8",0* points
same,Volume of ascites in mice,"mouse L1210 leukemia; i.p. 75 μg/mouse, day 10",0* points
same,Volume of ascites in mice,"mouse L1210 leukemia; i.p. 75 μg/mouse, day 13",0.4 ± 0.4 points
same,Volume of ascites in mice,"mouse L1210 leukemia; i.p. 75 μg/mouse, day 15",1 ± 1 points
same,Volume of ascites in mice,"mouse L1210 leukemia; i.p. 75 μg/mouse, day 15, listed as 64Zn aspartate",1 points
same,Volume of ascites in mice,"mouse L1210 leukemia; i.p. 75 μg/mouse, day 18",1.1 ± 1.1 points
same,Volume of ascites in mice,"mouse L1210 leukemia; i.p. 75 μg/mouse, day 20",0 points
same,Volume of ascites in mice,"mouse L1210 leukemia; i.p. 75 μg/mouse, day 22",0 points
same,Volume of ascites in mice,"mouse L1210 leukemia; i.p. 75 μg/mouse, day 26",0 points
same,Volume of ascites in mice,"mouse L1210 leukemia; i.p. 75 μg/mouse, day 28",0 points
same,Increase in the lifespan of experimental animals,mouse L1210 leukemia; i.v. 25 μg/mouse,2.4%
same,Number of animals in the group without tumor,mouse L1210 leukemia; i.v. 25 μg/mouse,0 pc
same,Tumor-free animals,mouse L1210 leukemia; i.v. 25 μg/mouse,0%
same,Volume of ascites in mice,"mouse L1210 leukemia; i.v. 25 μg/mouse x7, day 8",3.3 ± 0.3 points
same,Number of animals in the group with tumor,"mouse L1210 leukemia; i.v. 25 μg/mouse, 16 mice per group",16 pc
same,Average lifespan of animals (M ± m),"mouse L1210 leukemia; i.v. 25 μg/mouse, 60 days observation",16.9 ± 1.3 days
same,Volume of ascites in mice,"mouse L1210 leukemia; i.v. 25 μg/mouse, day 10",4.7 ± 0.4 points
same,Volume of ascites in mice,"mouse L1210 leukemia; i.v. 25 μg/mouse, day 13",7.7 ± 0.4 points
same,Volume of ascites in mice,"mouse L1210 leukemia; i.v. 25 μg/mouse, day 15",9.7 ± 0.3 points
same,Volume of ascites in mice,"mouse L1210 leukemia; i.v. 25 μg/mouse, day 18",8 ± 0.9 points
same,Volume of ascites in mice,"mouse L1210 leukemia; i.v. 25 μg/mouse, day 20",10 points
same,percentage of dead tumor cells in the ascites treated with the agent,"mouse L1210 leukemia; mouse, in vivo",≤ 5%
same,effect on the growth of mouse leukemia L1210 cells,mouse L1210 leukemia; series of intravenous injections,no effect
O=S(=O)([O-])[O-].[64Zn+2] [^64Zn],time of the gap closing,[1],72 h
